Measured values as given in ChEMBL document CHEMBL5247589, “Natural occurrence, bioactivity, and biosynthesis of triene-ansamycins” (Eur J Med Chem, 2022).
pIC50: −log10 of the molar value. Converted amounts (≈) assume the structure as drawn. Values belong to the molecule of their own block, whether it stands above or below them.

Legend:
[1] = tested on: HeLa; experiment: Antitumor activity against human HeLa cells; assay type: functional, cell-based
[2] = tested on: PANC-1; experiment: Antitumor activity against human PANC-1; assay type: functional, cell-based; details: pooled result: one value given for 3 cell lines, strains, targets or settings
[3] = tested on: L5178Y; experiment: Cytotoxicity against mouse L5178Y; assay type: toxicity, cell-based
[4] = tested on: SW1990; experiment: Antitumor activity against human SW1990 cells assessed as cell growth inhibition incubated for 48 hrs by CCK-8 assay; assay type: functional, cell-based; details: SW1990, 48 h
[5] = tested on: PANC-1; experiment: Antitumor activity against human PANC-1 cells assessed as cell growth inhibition incubated for 48 hrs by CCK-8 assay; assay type: functional, cell-based; details: PANC-1, 48 h
[6] = tested on: HepG2; experiment: Antitumor activity against human HepG2 incubated for 48 hrs by MTT assay; assay type: functional, cell-based; details: HepG2, 48 h
[7] = tested on: MCF7; experiment: Antitumor activity against human MCF-7 incubated for 48 hrs by MTT assay; assay type: functional, cell-based; details: MCF7, 48 h
[8] = tested on: NCI-H1299; experiment: Antiproliferative activity against human H1299 cells incubated for 72 hrs by absorbance based assay; assay type: functional, cell-based; details: NCI-H1299, 72 h
[9] = tested on: HeLa; experiment: Antiproliferative activity against human HeLa cells incubated for 72 hrs by absorbance based assay; assay type: functional, cell-based
[10] = tested on: C-33-A; experiment: Antitumor activity against human C33A cells assessed as cell growth inhibition incubated for 3 days; assay type: functional, cell-based; details: 72 h
[11] = tested on: COLO 201; experiment: Antitumor activity against human COL0201 cells assessed as cell growth inhibition incubated for 3 days; assay type: functional, cell-based; details: COLO 201, 72 h
[12] = tested on: HeLa; experiment: Antitumor activity against human HeLa cells assessed as cell growth inhibition incubated for 3 days; assay type: functional, cell-based; details: 72 h
[13] = tested on: MCF7; experiment: Antitumor activity against human MCF7 cells assessed as cell growth inhibition incubated for 3 days; assay type: functional, cell-based; details: MCF7, 72 h
[14] = tested on: BXPC-3; experiment: Antitumor activity against human BXPC-3 cells incubated for 48 to 72 hrs by MTS Assay; assay type: functional, cell-based
[15] = tested on: PANC-1; experiment: Antitumor activity against human PANC-1 cells incubated for 48 to 72 hrs by MTS Assay; assay type: functional, cell-based
[16] = tested on: Capan-2; experiment: Antitumor activity against human Capan-2 cells incubated for 48 to 72 hrs by MTS Assay; assay type: functional, cell-based
[17] = tested on: PC-3; experiment: Antitumor activity against human PC-3 cells incubated for 72 hrs by SRB calorimetric assay; assay type: functional, cell-based; details: PC-3, 72 h

SMILES: CC[C@H](C)C(=O)N[C@H](C)C(=O)O[C@H]1C/C=C/C=C/C=C/[C@H](OC)CC(=O)Nc2cc(O)cc(c2)CC/C=C(/C)[C@H](O)[C@H]1C
pIC50 [2]: 6.47

SMILES: CO[C@H]1/C=C/C=C/C=C/C[C@H](O)[C@H](C)[C@@H](O)/C(C)=C\CCC2=CC(=O)C=C(NC(=O)C1)C2=O
MIC [3]: > 10 µM

SMILES: CO[C@H]1/C=C/C=C/C=C/C[C@H](OC(=O)[C@@H](C)NC(=O)CC(C)C)[C@H](C)[C@@H](O)/C(C)=C\CCc2cc(O)cc(c2)NC(=O)C1
pIC50 [2]: 6.77

SMILES: C[C@@H]1[C@@H](O)[C@H](C)[C@@H](O)CCc2cc(O)cc(c2)NC(=O)C[C@@H](O)/C=C/C=C/C=C/C[C@@H]1O
pIC50 [8]: < 5.00
pIC50 [9]: 5.00

SMILES: CO[C@H]1/C=C/C=C/C=C/C[C@H](OC(=O)[C@@H](C)NC(=O)C2CC2)[C@H](C)[C@@H](O)/C(C)=C\CCc2cc(O)cc(c2)NC(=O)C1
pIC50 [6]: < 5.00
pIC50 [7]: < 5.00

SMILES: CO[C@H]1/C=C/C=C/C=C/C[C@H](OC(=O)[C@@H](C)NC(=O)CC(C)C)[C@H](C)[C@@H](O)/C(C)=C\CCc2c(O)c(cc3c2SCC(=O)N3)NC(=O)C1
pIC50 [10]: 6.82
pIC50 [11]: 6.82
pIC50 [12]: 6.82
pIC50 [13]: 6.82

SMILES: CO[C@H]1/C=C/C=C/C=C/C[C@H](O)[C@H](C)[C@@H](O)/C(C)=C\CCc2c(O)c(cc3ncsc23)NC(=O)C1
pIC50 [8]: < 5.00
pIC50 [9]: 5.00

SMILES: CO[C@@H]1CC(=O)N2c3cc(O)cc4c3O[C@@H](/C=C/C=C/C[C@H](OC(=O)[C@@H](C)NC(=O)C3CCCCC3)[C@H](C)[C@@H](O)/C(C)=C\CC4)[C@H]12
pIC50 [4]: 5.08
pIC50 [5]: 5.08

SMILES: C/C1=C/CCc2c(O)c(cc3c2SCC(=O)N3)NC(=O)C[C@@H](O)/C=C/C=C/C=C/C[C@H](O)[C@H](C)[C@H]1O
pIC50 [8]: < 5.00
pIC50 [9]: 5.00

SMILES: CO[C@H]1/C=C/C=C/C=C/C[C@H](O)[C@H](C)[C@@H](O)/C(C)=C\CCc2cc(O)cc(c2O)NC(=O)C1
MIC [3]: 7 µM (≈ 3.2 µg/mL)

SMILES: CO[C@H]1/C=C/C=C/C=C/C[C@H](OC(=O)[C@@H](C)NC(=O)CCCC(C)C)[C@H](C)[C@@H](O)/C(C)=C\CCc2cc(O)cc(c2)NC(=O)C1
pIC50 [14]: 7.00
pIC50 [15]: 7.00
pIC50 [16]: 7.00
pIC50 [17]: 7.00

SMILES: CO[C@@H]1CC(=O)Nc2c(O)c3cc4c2[C@H](/C=C/C=C/C[C@H](O)[C@H](C)[C@@H](OC(=O)[C@@H](C)NC(=O)C2CCCCC2)/C(C)=C\CC3)[C@H]1O4
pIC50 [4]: 5.11
pIC50 [5]: 5.11

SMILES: CO[C@@H]1CC(=O)Nc2c(O)c3cc4c2[C@H](/C=C/C=C/C[C@H](OC(=O)[C@@H](C)NC(=O)CCC(C)C)[C@H](C)[C@@H](O)/C(C)=C\CC3)[C@H]1O4
pIC50 [4]: < 5.00
pIC50 [5]: < 5.00

SMILES: CO[C@H]1/C=C/C=C/C=C/C[C@H](OC(=O)[C@@H](C)NC(=O)C2=CCCC2)[C@H](C)[C@@H](O)/C(C)=C\CCc2cc(O)cc(c2)NC(=O)C1
pIC50 [6]: 5.17
pIC50 [7]: 5.17

SMILES: CO[C@H]1/C=C/C=C/C=C/C[C@H](OC(=O)[C@@H](C)NC(=O)C2=CCCCC2)[C@H](C)[C@@H](O)/C(C)=C\CCc2cc3c(c(c2O)NC(=O)C1)SCC(=O)N3
pIC50 [10]: 8.51
pIC50 [11]: 8.51
pIC50 [12]: 8.51
pIC50 [13]: 8.51

Continued, in another order:

pIC50 [1]: 7.82
SMILES: CO[C@H]1/C=C/C=C/C=C/C[C@H](OC(=O)[C@@H](C)NC(=O)C2CCCCC2)[C@H](C)[C@@H](O)/C(C)=C\CCc2cc(O)c(SC)c(c2O)NC(=O)C1

pIC50 [4]: 5.16
pIC50 [5]: 5.16
SMILES: CO[C@@H]1CC(=O)Nc2c(O)c3cc4c2[C@H](/C=C/C=C\C[C@H](OC(=O)[C@@H](C)NC(=O)C2CCCCC2)[C@H](C)[C@@H](O)/C(C)=C\CC3)[C@H]1O4

pIC50 [6]: ≤ 5.17
pIC50 [7]: ≤ 5.17
SMILES: CO[C@H]1/C=C/C=C/C=C/C[C@H](OC(=O)[C@@H](C)NC(=O)C2CCCC2)[C@H](C)[C@@H](O)/C(C)=C\CCc2cc(O)cc(c2)NC(=O)C1

pIC50 [6]: 5.13
pIC50 [7]: 5.13
SMILES: CO[C@H]1/C=C/C=C/C=C/C[C@H](OC(=O)[C@@H](C)NC(=O)C2CCC2)[C@H](C)[C@@H](O)/C(C)=C\CCc2cc(O)cc(c2)NC(=O)C1

pIC50 [4]: 5.33
pIC50 [5]: 5.33
SMILES: CO[C@@H]1CC(=O)Nc2c(O)c3cc4c2[C@@H](/C=C/C=C/C[C@H](OC(=O)[C@@H](C)NC(=O)C2CCCCC2)[C@H](C)[C@@H](O)/C(C)=C\CC3)[C@H]1O4

pIC50 [11]: 7.74
pIC50 [12]: 7.74
pIC50 [13]: 7.74
SMILES: CO[C@H]1/C=C/C=C/C=C/C[C@H](OC(=O)[C@@H](C)NC(=O)C2CCCCC2)[C@H](C)[C@@H](O)/C(C)=C\CCc2c(O)c(cc3c2SCC(=O)N3)NC(=O)C1
pIC50 [10]: 7.74

pIC50 [11]: 9.07
pIC50 [12]: 9.07
pIC50 [13]: 9.07
SMILES: CO[C@H]1/C=C/C=C/C=C/C[C@H](OC(=O)[C@@H](C)NC(=O)C2CCCCC2)[C@H](C)[C@@H](O)/C(C)=C\CCc2cc3c(c(c2O)NC(=O)C1)SCC(=O)N3
pIC50 [10]: 9.07
